Source: patent US9744175B2, “Compositions of combinations of non-covalent DNA binding agents and anti-cancer and/or anti-inflammatory agents and their use in disease treatment” (INDUS PHARMACEUTICALS, INC., priority 2012, dated 2017)

Assays:
CEM = assay: Growth inhibition in tumor cell lines (Table 2); assay type: cell-based, human; conditions: leukemia, PTEN deficiency
Description: (§1) Three novel non-covalent DNA binding agents of the invention, NSC 718813, NSC 723734 and NSC 726260, are tested in five different EGFR-resistant, K-Ras mutant cancer cell lines. These cell lines represent colorectal (SW480, SW620 and HCT116) and breast cancer (MDA-MB-231 and […]).
(§2) The in vitro assays to evaluate the anticancer potential of non-covalent DNA binding agents were measured by using one or more of the assays described below.
(§3) Tumor cells are plated in 96 well plates at a density of 8,000 to 10,000 cells per well in 100 uL volume and grown overnight. On the second day, the cells are supplemented with medium containing an appropriate dilution of the compounds to be tested. The cells are treated with the test compounds for two more days and the growth medium was replaced with fresh medium containing 3% Alamar Blue, incubated for 2-3 hours and plates are read in a SpectraMax Gemini XS fluorescence plate reader (Molecular Devices).

HCT116 = assay: Growth inhibition in tumor cell lines (Table 2); assay type: cell-based, human; conditions: HCT116, colon, KRAS mutation, MLH1 deficiency
Description: as §1, §2, §3

MDA231 = assay: Growth inhibition in tumor cell lines (Table 2); assay type: cell-based, human; conditions: MDA231, breast, KRAS & BRAF (ERK+)
Description: as §1, §2, §3

SW480 = assay: Growth inhibition in tumor cell lines (Table 2); assay type: cell-based, human; conditions: SW480, colon, KRAS mutation
Description: as §1, §2, §3

SW620 = assay: Growth inhibition in tumor cell lines (Table 2); assay type: cell-based, human; conditions: SW620, colon, KRAS mutation
Description: as §1, §2, §3

Wild type yeast = assay: Alamar Blue cell survival assay in yeast cells; assay type: cell-based
Description: (§4) The cells are diluted 100-fold in yeast complete medium. 100 μL of diluted cells are seeded in 96 well plates with or without a non-covalent DNA binding compound and incubated for 24 hours at 30° C. The following day, an equal volume of yeast complete medium containing 1% alamar blue is added and incubated at 30° C. for two hours. Fluorescence intensity is measured in a fluorescent reader to calculate the inhibition effect of non-covalent DNA binding agents in mutant and wild type yeast cells.
(§5) Yeast cells that carry mutations in different genes involved in homologous recombination (rad 50, rad51, rad52, and rad57) and nucleotide excision/double strand repair (rad1) are grown to stationary culture overnight.

yeast rad1 mutation = assay: Alamar Blue cell survival assay in yeast cells; assay type: cell-based
Description: as §4, §5

yeast rad50 mutation = assay: Alamar Blue cell survival assay in yeast cells; assay type: cell-based
Description: as §4, §5

yeast rad51 mutation = assay: Alamar Blue cell survival assay in yeast cells; assay type: cell-based
Description: as §4, §5

yeast rad52 mutation = assay: Alamar Blue cell survival assay in yeast cells; assay type: cell-based
Description: as §4, §5

H1299 (p53−) = assay: siRNA inhibition of MMR functions, alamar blue growth inhibition; assay type: cell-based, human; conditions: for Fold improvement in IC50, mlh1: mlh1 siRNA vs control; for Fold improvement in IC50, msh2: msh2 siRNA vs control; for IC50: no siRNA knock out, read-out: IC50, Control
Description: (§6) siRNA specific for different genes is purchased from Dharmacon (Thermo. Fisher Scientific Dharmacon Products, Lafayette, Colo. 80026) and the protocol recommended by the supplier is utilized. Confluent cells are trypsinized and 5000 cells are seeded in a well in the presence or absence of siRNA in 100 μL medium. The cells are incubated with siRNA for two days. A non-covalent DNA binding agent of the invention is added in a 10 μL volume and incubated for another 48 hours. After treatment with the agent, the medium is replaced with 1% alamar blue containing medium to measure fluorescence after two hours.
as §6, with “from Dharmacon (Thermo Fisher Scientific” for “from Dharmacon (Thermo. Fisher Scientific”, “two hours. […] The results are presented in FIGS. 14-18 (SEQ ID NO:3-12, respectively) and Table 7.” for “two hours.”

[1] = system: SW620 colon tumor xenograft; assay: SW620 colon tumor xenograft model; assay type: in vivo, mice
[2] = system: homologous recombination repair deficiencies; assay: Synthetic lethality with homologous recombination repair deficiencies (FIG. 8); assay type: cell-based; conditions: FIG. 8 legend
[3] = system: tumor cells that have K-RAS mutations and/or PTEN or mismatch repair gene deficiencies; assay: Growth inhibition, summary of potency in text; assay type: cell-based, human; conditions: among the three compounds tested, tumor cell lines
Description: as §1, §2, §3

yeast rad57 mutation = assay: Alamar Blue cell survival assay in yeast cells; assay type: cell-based
Description: as §4, §5

| SMILES | IC50 (CEM) [nM] | IC50 (HCT116) [nM] | IC50 (MDA231) [nM] | IC50 (SW480) [nM] | IC50 (SW620) [nM] | IC50 (Wild type yeast) [nM] | IC50 (yeast rad1 mutation) [nM] | IC50 (yeast rad50 mutation) [nM] | IC50 (yeast rad51 mutation) [nM] | IC50 (yeast rad52 mutation) [nM] | Fold improvement in IC50, mlh1 (H1299 (p53−)) [fold] | Fold improvement in IC50, msh2 (H1299 (p53−)) [fold] | IC50 (H1299 (p53−)) [nM] | synthetic lethality with homologous recombination repair deficiencies [2] | further results |
| --- | --- | --- | --- | --- | --- | --- | --- | --- | --- | --- | --- | --- | --- | --- | --- |
| COc1cc2c(cc1OCCCCCOc1cc3c(cc1OC)C(=O)N1CCC[C@H]1C(=O)N3)N=C[C@@H]1CCCN1C2=O [NSC 718813] | 51 ± 0.6 | 17 | 54 | 48 | 236 ± 37.2 | > 250000 | 11000 | 90000 | 7000 | 90000 | 1.3 | 1.9 | 600 |  | tumor burden in SW620 colon tumor xenograft model ([1]; Q1 Dx5 IV followed by Q4Dx3 IP administration): reduces tumor burden |
| COc1cc2c(cc1OCCCCN1CCN(CCCCOc3cc4c(cc3OC)C(=O)N3CCC[C@H]3C=N4)CC1)N=C[C@@H]1CCCN1C2=O [NSC 723734] | 49 ± 0.8 | 160 | 394 | 575 | 175 ± 25 | > 250000 | 15000 | 17000 | 28000 | 50000 | 2.0 | 2.6 | 900 | synthetic lethal | dose-reduction index (DRI) of combination with cisplatin ([1]; SW620 colon tumor xenograft mouse model): significant dose-reduction index (DRI); quantitative analysis of combination with cisplatin ([1]; combination doses achieving >50% efficacy): synergistic with cisplatin; synergy with cisplatin in SW620 colon tumor xenograft mouse model ([1]; intermittent IP administration of the two drugs): excellent synergy with cisplatin; synergy with cisplatin at lower (minimally active) cisplatin dose ([1]; intermittent IP administration, SW620 xenograft in mice): synergistic with cisplatin and restores antitumor activity of cisplatin; activity in SW620 colon tumor xenograft model ([1]; intraperitoneal, once daily administration for 7 days): superior activity to NSC718813; reduction in SW620 colon tumor xenograft ([1]; intravenous and intraperitoneally administered): dose-dependent reduction |
| COc1cc2c(cc1OCCCC(=O)Nc1ccc3ccc4cccc5ccc1c3c45)N=C[C@@H]1CCCN1C2=O [NSC 726260] | 161 ± 0.4 | 550 | 501 | 1080 | 1050 ± 50 | 45000 | 15000 | 20000 | 4500 | 15000 |  |  |  | synthetic lethal | IC50 [3]: ~1000 nM; IC50 (yeast rad57 mutation): 300 nM; pharmacological activity in SW620 colon tumor xenograft model ([1]; combined IV and IP administration): limited pharmacological activity |
